Experiments:
Assay in all cases: relative viability (nuclei count vs DMSO), 5 days (fraction); higher = more cells survive
Zosuquidar + Trametinib = compound: O[C@@H](COc1cccc2ncccc12)CN1CCN([C@@H]2c3ccccc3[C@@H]3[C@H](c4ccccc42)C3(F)F)CC1 [Zosuquidar] + CC(=O)Nc1cccc(-n2c(=O)n(C3CC3)c(=O)c3c(Nc4ccc(I)cc4F)n(C)c(=O)c(C)c32)c1 [Trametinib] (partner 0.02 µM)
Outline: (§1)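 A single step with final 0.05% Triton X-100, 1% formaldehyde and 1 ug/ml Hoechst fixed the cells and stained nuclei 5 days after treatment. Lung cancer cell lines in 1536-well plates had been treated by pin tool the day after seeding with one drug alone or a fixed anchor-drug dose plus five library-drug doses (not always all listed) in √10 steps, and nuclei were counted on 4× images. Relative viability is the ratio of nuclei in treated wells to nuclei in vehicle wells, taken as the median of duplicate plates.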

[1] = compound: COc1cc2nccc(Oc3ccc(NC(=O)C4(C(=O)Nc5ccc(F)cc5)CC4)cc3)c2cc1OC [Cabozantinib] + CC1(C)CCC(c2ccc(Cl)cc2)=C(CN2CCN(c3ccc(C(=O)NS(=O)(=O)c4ccc(N[C@H](CCN5CCOCC5)CSc5ccccc5)c(S(=O)(=O)C(F)(F)F)c4)cc3)CC2)C1 [Navitoclax] (partner 0.5 µM)
Outline: as §1

Cabozantinib + Alpelisib = compound: COc1cc2nccc(Oc3ccc(NC(=O)C4(C(=O)Nc5ccc(F)cc5)CC4)cc3)c2cc1OC [Cabozantinib] + Cc1nc(NC(=O)N2CCC[C@H]2C(N)=O)sc1-c1ccnc(C(C)(C)C(F)(F)F)c1 [Alpelisib] (partner 2 µM)
Outline: as §1

Kobe2602 + Foretinib = compound: C1=CC(=CC=C1NC(=S)NNC2=C(C=C(C=C2[N+](=O)[O-])C(F)(F)F)[N+](=O)[O-])F [Kobe2602] + COc1cc2c(Oc3ccc(NC(=O)C4(C(=O)Nc5ccc(F)cc5)CC4)cc3F)ccnc2cc1OCCCN1CCOCC1 [Foretinib] (partner 0.25 µM)
Outline: as §1

| Cell Line | relative viability (Zosuquidar + Trametinib; first compound 0.01 µM) | relative viability (Zosuquidar + Trametinib; first compound 0.03162 µM) | relative viability (Zosuquidar + Trametinib; first compound 0.3162 µM) | relative viability (Zosuquidar + Trametinib; first compound 1 µM) | relative viability ([1]; first compound 0.02 µM) | relative viability ([1]; first compound 0.06325 µM) | relative viability ([1]; first compound 0.2 µM) | relative viability ([1]; first compound 0.6325 µM) | relative viability ([1]; first compound 2 µM) | relative viability (Cabozantinib + Alpelisib; first compound 0.02 µM) | relative viability (Cabozantinib + Alpelisib; first compound 0.06325 µM) | relative viability (Cabozantinib + Alpelisib; first compound 0.2 µM) | relative viability (Cabozantinib + Alpelisib; first compound 0.6325 µM) | relative viability (Cabozantinib + Alpelisib; first compound 2 µM) | relative viability (Kobe2602 + Foretinib; first compound 0.2 µM) | relative viability (Kobe2602 + Foretinib; first compound 0.6325 µM) | relative viability (Kobe2602 + Foretinib; first compound 6.325 µM) | relative viability (Kobe2602 + Foretinib; first compound 20 µM) | relative viability (Zosuquidar + Trametinib; first compound 0.1 µM) | relative viability (Kobe2602 + Foretinib; first compound 2 µM) |
| --- | --- | --- | --- | --- | --- | --- | --- | --- | --- | --- | --- | --- | --- | --- | --- | --- | --- | --- | --- | --- |
| NCI-H2085 | 0.513 | 0.481 | 0.617 | 0.548 | 1.16 | 1.17 | 1.15 | 1.21 | 1.06 | 1.15 | 1.01 | 0.982 | 0.915 | 0.843 | 0.909 | 1.01 | 1.12 | 0.879 | – | – |
| NCI-H2087 | 0.188 | 0.192 | 0.224 | 0.196 | 1.03 | 1.1 | 1.06 | 0.985 | 0.981 | 1.07 | 1.12 | 0.978 | 1.03 | 0.995 | 1.09 | 1.18 | 1.11 | 1.18 | 0.167 | 1.07 |
| NCI-H2126 | 0.505 | 0.577 | 0.573 | 0.599 | 0.828 | 0.84 | 0.869 | 0.831 | 0.896 | 0.798 | 0.764 | 0.73 | 0.755 | 0.765 | 1.17 | 1.25 | 0.996 | 1.01 | 0.536 | 1.07 |
| NCI-H2170 | 0.85 | 0.929 | 0.952 | 0.869 | 0.579 | 0.611 | 0.559 | 0.652 | 0.62 | 0.842 | 0.958 | 0.723 | 0.854 | 0.781 | 0.966 | 1.04 | 1.01 | 0.963 | 0.868 | 1.01 |
| NCI-H2228 | 0.438 | 0.441 | 0.57 | 0.505 | 0.784 | 0.689 | 0.725 | 0.824 | 0.805 | 0.794 | 0.922 | 0.784 | 0.564 | 0.711 | 0.923 | 0.806 | 0.817 | 0.862 | 0.423 | 0.734 |
| NCI-H2347 | 0.268 | 0.268 | 0.311 | 0.297 | 0.83 | 0.994 | 0.803 | 0.612 | 0.375 | 1.2 | 1.15 | 1.01 | 0.985 | 0.668 | 1.32 | 1.38 | 0.63 | 0.868 | 0.276 | 0.83 |
| NCI-H2405 | 0.64 | 0.621 | 0.754 | 0.617 | – | 1.09 | 0.881 | 0.787 | 0.856 | – | 0.858 | 0.838 | 0.744 | 0.67 | 1.05 | 1.04 | 1.06 | 1.07 | 0.617 | 1.01 |
| NCI-H3122 | 0.232 | 0.258 | 0.222 | 0.211 | 0.988 | 1.03 | 0.987 | 1.03 | 1.02 | 0.875 | 0.778 | 0.731 | 0.97 | 0.956 | 0.969 | 0.88 | 0.925 | 0.967 | 0.238 | 0.967 |
| PC-3 [JPC-3] | 0.78 | 0.628 | 0.692 | 0.699 | 0.829 | 0.929 | – | 0.784 | 0.868 | 1.02 | 1.16 | – | 1.06 | 1.04 | 1.02 | 1.18 | 1.03 | 1.07 | 0.667 | 0.994 |
| PC-14 | 0.826 | 0.753 | 0.83 | 0.706 | 1.06 | 1.09 | – | 0.931 | 0.997 | 1 | 1.03 | – | 0.901 | 0.868 | 0.962 | 0.968 | 0.939 | 0.911 | 0.862 | 0.922 |
| RERF-LC-KJ | 0.837 | 0.897 | 0.857 | 0.919 | 1.06 | 1.08 | 0.948 | 0.866 | 0.921 | 0.864 | 0.877 | 0.733 | 0.847 | 0.675 | 0.878 | 0.952 | 0.777 | 0.763 | 0.944 | 0.828 |
| SK-LU-1 | 0.506 | 0.578 | 0.489 | 0.519 | – | 1.09 | 0.967 | 0.852 | 0.988 | – | 1.29 | 0.983 | 0.718 | 0.705 | 0.78 | 0.911 | 0.834 | 0.872 | 0.488 | 0.81 |
| SK-MES-1 | 0.616 | 0.494 | 0.563 | 0.549 | 1.28 | 1.24 | 1.22 | 1.23 | 1.19 | 1.08 | 0.993 | 0.846 | 0.826 | 0.816 | 0.922 | 0.99 | 0.99 | 0.898 | 0.535 | 0.918 |
| SW 1573 | 0.613 | 0.605 | 0.628 | 0.544 | 1.04 | 1.17 | 0.887 | 1 | 0.81 | 1.02 | 0.719 | 0.77 | 0.792 | 0.651 | 1.02 | 0.873 | 1 | 1.18 | 0.549 | 0.998 |

— the supplement of paper PMC10307832
